Marks after values point to notes of the source that are not given here.
How the values were obtained:
[1] = system: TNF-α production from THP-1 cells; adenosine receptors A1R, A2AR, A2BR, A3R; assay: TNF-α production from THP-1 cells, LPS + IFN-γ, ANO with adenosine receptor antagonists (Experiment 5); type: cell-based; conditions: LPS + human IFN-γ, ANO 5 μM
From the text: USA; ZM241385, commercialized by Tocris Bioscience, MSY USA; MRS1754, commercialized by Sigma-Aldrich Corporation, St. Louis, Mo. […] The results are in Table 5 in parallel.

[2] = system: TNF-α production from mouse intraperitoneal macrophages; assay: TNF-α production from mouse intraperitoneal macrophages, LPS + IFN-γ, ELISA (Experiment 2); type: cell-based; conditions: for TNF-α Concentration: LPS 2 μg/mL, IFN-γ 10 IU/mL
Protocol: The resulting cell suspension was added to a dish for tissue culture (product code: 353003, commercialized by Becton Drive Franklin Lakes, N.J., USA), and incubated in a 5% v/v CO2 incubator at 37° C. for 1.5 hours to attach the peritoneal exudate macrophages on the surface of the dish.
TNF-α in each collected supernatant was assayed with enzyme-linked immunosorbent assay (ELISA) (Experiment groups 2 to 5). […] The results are in Table 2 in parallel. The test for each Experiment group was conducted by using three wells. The assay for TNF-α was conducted on an ELISA using a commercialized rat anti-mouse TNF-α antibody (“Rat anti-mouse/rat TNF antibody” (product code: 551225), a product name of Becton Drive Franklin Lakes, N.J., USA) as a solid phase antibody; a commercialized biotin-labeled rat anti-mouse TNF-α antibody (“Biotin-Labeled Rat Anti-Mouse TNF Antibody”, product code: 554415, commercialized by Becton Drive Franklin Lakes, N.J., USA) as a secondary antibody; and an HRPO-labeled streptavidin.

[3] = system: mice with bacterial shock induced by LPS; assay: LPS bacterial shock mice, survival, ANO i.v. one hour after LPS (Experiment 8); type: in vivo, BALB/c mice; conditions: LPS 18 mg/kg i.p., ANO 135 mg/kg i.v. at one hour after LPS
Protocol: An LPS specimen derived from E. coli ([…]), commercialized by Sigma-Aldrich Corporation, St. Louis, Mo. USA, was dissolved in PBS and intraperitoneally administered to all the seven mice in each group at a dose of 18 mg/kg body weight of LPS. […] For each group, the survival number of mice was confirmed up to 7 to 27 hours after administering LPS and determined the survival rate (%) of mice in each group.

[4] = system: IL-6 in serum of mice administered with LPS; assay: Serum IL-6 in LPS-administered mice, ANO i.v. (Experiment 7); type: in vivo, BALB/c mice; conditions: LPS 18 mg/kg i.p., serum two hours after LPS
Protocol: (§1) More specifically, 18 BALB/c female mice, 9-week-old, commercialized by Japan Charles River, Tokyo, Japan, were randomly divided into three groups, six heads each. An LPS specimen derived from E. coli (055:B5), commercialized by Sigma-Aldrich Corporation, St. Louis, Mo. USA, was dissolved in physiological saline and intraperitoneally administered to all the 6 mice in respective three groups at a dose of 18 mg/kg body weight of LPS (Experiment groups 1 to 3). […] To the six mice of the remaining one group was intravenously administered PBS in a liquid volume of 0.2 mL/head simultaneously with the administration of LPS (Experiment group 1).
(§2) For the mice in each group, they were collected blood at two hours after the LPS administration, followed by assaying the level of TNF-α, IL-6, IL-10, and IL-12 in each serum and averaging the data for each group. For the assay of the level of TNF-α, the same ELISA as in Experiment 2 was used and for the assay of the level of IL-6, the same ELISA as in Experiment 3 was used. […]

[5] = system: TNF-α in serum of mice administered with LPS; assay: Serum TNF-α in LPS-administered mice, ANO i.v. (Experiment 7); type: in vivo, BALB/c mice; conditions: LPS 18 mg/kg i.p., serum two hours after LPS
Protocol: as §1, §2

[6] = system: mice with bacterial shock induced by LPS; assay: LPS bacterial shock mice, survival, oral administration (Experiment 10); type: in vivo, BALB/c mice; conditions: LPS 18 mg/kg i.p.
BALB/c mice = assay: Safeness of injection preparations, i.v. once a day for seven days (Example 2); type: in vivo; conditions: mouse, in vivo, iv
Protocol: The safeness of the preparations prepared in the above was evaluated.

## Nc1c2ncn([C@@H]3O[C@H](CO)[C@@H](O)[C@H]3O)c2nc[n+]1[O-] [ANO, adenosine N1-oxide]
[1]; no antagonist
  TNF-α Concentration: 97 pg/mL
[1]; pretreated with DPCPX 0.5 μM
  TNF-α Concentration: 132** pg/mL
[1]; pretreated with DPCPX 1 μM
  TNF-α Concentration: 130** pg/mL
[1]; pretreated with DPCPX 5 μM
  TNF-α Concentration: 129** pg/mL
[1]; pretreated with DPCPX 10 μM
  TNF-α Concentration: 133** pg/mL
[1]; pretreated with MRS1220 0.5 μM
  TNF-α Concentration: 105** pg/mL
[1]; pretreated with MRS1220 1 μM
  TNF-α Concentration: 105** pg/mL
[1]; pretreated with MRS1220 5 μM
  TNF-α Concentration: 105** pg/mL
[1]; pretreated with MRS1220 10 μM
  TNF-α Concentration: 102** pg/mL
[1]; pretreated with MRS1754 0.5 μM
  TNF-α Concentration: 118** pg/mL
[1]; pretreated with MRS1754 1 μM
  TNF-α Concentration: 121** pg/mL
[1]; pretreated with MRS1754 5 μM
  TNF-α Concentration: 121** pg/mL
[1]; pretreated with MRS1754 10 μM
  TNF-α Concentration: 103* pg/mL
[1]; pretreated with ZM241385 0.5 μM
  TNF-α Concentration: 135** pg/mL
[1]; pretreated with ZM241385 1 μM
  TNF-α Concentration: 137** pg/mL
[1]; pretreated with ZM241385 5 μM
  TNF-α Concentration: 135** pg/mL
[1]; pretreated with ZM241385 10 μM
  TNF-α Concentration: 132** pg/mL
[2]; ANO 0.006 μM
  TNF-α Concentration: 1573 pg/mL
[2]; ANO 0.031 μM
  TNF-α Concentration: 1637 pg/mL
[2]; ANO 0.063 μM
  TNF-α Concentration: 1136 pg/mL
[2]; ANO 0.313 μM
  TNF-α Concentration: 545 pg/mL
[2]; mouse intraperitoneal macrophages, LPS and IFN-γ
  concentration range in which the production of TNF-α was significantly inhibited: ≥ 0.063 µM
[3]; 7 hours
  Survival rate (%) of mice, 7 Hours: 100%
[3]; 22 hours
  Survival rate (%) of mice, 22 Hours: 86%
[3]; 27 hours
  Survival rate (%) of mice, 27 Hours: 57%
[4]; ANO 68 mg/kg i.v.
  IL-6 Concentration: 59.1 ng/mL
[4]; ANO 135 mg/kg i.v.
  IL-6 Concentration: 46.3* ng/mL
[5]; ANO 68 mg/kg i.v.
  TNF-α Concentration: 109** pg/mL
[5]; ANO 135 mg/kg i.v.
  TNF-α Concentration: 46** pg/mL
[6]; oral 400 mg/kg (200 × 2 shots)
  Survival rate (%) of mice, 22 Hours: 75%
  Survival rate (%) of mice, 31 Hours: 75%
  Survival rate (%) of mice, 46 Hours: 50%
  Survival rate (%) of mice, 55 Hours: 50%
  Survival rate (%) of mice, 72 Hours: 100%
  Survival rate (%) of mice, 79 Hours: 50%
[6]; oral 600 mg/kg (200 × 3 shots)
  Survival rate (%) of mice, 22 Hours: 87.5%
  Survival rate (%) of mice, 31 Hours: 87.5%
  Survival rate (%) of mice, 46 Hours: 87.5%
  Survival rate (%) of mice, 55 Hours: 87.5%
  Survival rate (%) of mice, 72 Hours: 100%
  Survival rate (%) of mice, 79 Hours: 75%
BALB/c mice
  change in body weight and other appearance versus PBS: no significant change
  clinical laboratory test results that provide indices of renal and liver functions versus PBS: no difference
